Assay results taken from PubChem BioAssay (NCI).
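Dose response: 5 concentrations. Exposure: 48 h. Format: 96-well plates. Endpoint: linear interpolation; highest concentration if not reached. Definition used: TGI = concentration required for complete inhibition of growth.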

Test system: BT-549 breast
Experiment: growth of human tumour cells (NCI), 48 h

| SMILES | TGI [µM] |
| --- | --- |
| Cc1oc2c(c1C)S(=O)(=O)C(C#N)C(c1ccccc1)N2 (configuration not stated) | > 100 |
| CC(=O)Oc1cc2c(n(C)c1=O)-c1ccccc1C2 | > 100 |
| COc1ccc2cc(Oc3ccc(Cl)cc3)c(=O)oc2c1 | > 100 |
| CN(C)C=C1C(=O)c2c(Br)sc(Br)c2C1=O | 48.4 |
| CCN(CC)C(=C(C(Cl)=C(Cl)Cl)[N+](=O)[O-])N(CC)CC | > 100 |
| CCOC(=O)C(C(=O)OCC)=C1NC2(c3ccccc3Nc3ccc(C)cc32)C(C#N)S1 (configuration not stated) | 29.5 |
| COC(=O)Nc1nc2ccc(S(=O)(=O)NC(CC(C)C)C(=O)OC)cc2[nH]1 (configuration not stated) | > 100 |
| OC(CCN1CCCCC1)(c1ccccc1)c1ccccc1 | > 100 |
| CC(C)(C)[Si](C)(C)O[C@@H](C(=O)OC1C=CCCC1)[C@@H](NC(=O)c1ccccc1)c1ccccc1 (some centres not stated) | > 100 |
| O=C(Nc1cccc2ccccc12)Nn1cnnc1 | > 100 |
| Cc1oc2c(c1C)S(=O)(=O)C(C#N)=C(c1ccccc1)N2 | > 100 |
| Cc1ccc2c(c1)C(=O)/C(=N/Nc1ccc(Cl)cc1)CCO2 | > 100 |
| CN(C)c1ccc(/C=N\NC(=O)c2ccccc2Nc2ccccc2C(=O)N/N=C/c2ccc(N(C)C)cc2)cc1 | > 100 |
| CC(=O)O[C@@H]1CC[C@@]2(C)C(CC[C@H]3[C@@H]4CC[C@H]([C@H](C)CCc5nc6ccc(C)cc6[nH]5)[C@@]4(C)CC[C@@H]32)C1 (some centres not stated) | > 100 |
| C=C1C(=O)OC2/C=C(\CO)C3OC3C3OC3(C)CC(OC(=O)/C(=C/C)CO)C12 (configuration not stated) | > 100 |
| Cc1csc2nc3c(cnn3C)c(=S)n12 | > 100 |
| C/C1=C/C(C)CC(C)OC(=O)C(C)NC(=O)C(Cc2ccc(O)c(I)c2)N(C)C(=O)CNC(=O)C(C)C1 (configuration not stated) | 0.322 |
| Cc1ccc(-n2cnc3c(N)nc(N)nc32)cc1 | > 100 |
| CNc1c2cccc(C)c2nc2c(C(=O)NCCN(C)C)cccc12 | 2.8 |
| CCC(Sc1cc(Cl)c(C)cc1S(=O)(=O)Nc1nc(N)nc(N(C)C)n1)C(=O)O (configuration not stated) | > 10 |
| O=c1c(C=Nc2ccccc2Cl)c(O)n(-c2ccccc2)c(=O)n1-c1ccccc1 | > 100 |
| CCOC(=O)NNC(=O)C1CSC(c2ccccc2)N1C(C)=O (configuration not stated) | > 100 |
| CC(C)(C)O/C=C1/C(=O)OC2C[C@@H](O[Si](C)(C)C(C)(C)C)CC12 (some centres not stated) | > 100 |
| COc1ccc2nc3c([N+](=O)[O-])ccc4c3c(c2c1)N=CN4CCCN(C)C | 23.5 |
| O=C1CC(=O)NC(=NN2C(=O)/C(=C/C(=O)c3ccco3)N=C2c2ccccc2)N1 | > 100 |

Test system: DU-145 prostate
Experiment: growth of human tumour cells (NCI), 48 h

| SMILES | TGI [µM] |
| --- | --- |
| Cc1oc2c(c1C)S(=O)(=O)C(C#N)C(c1ccccc1)N2 (configuration not stated) | > 100 |
| CC(=O)Oc1cc2c(n(C)c1=O)-c1ccccc1C2 | > 100 |
| COc1ccc2cc(Oc3ccc(Cl)cc3)c(=O)oc2c1 | > 100 |
| CN(C)C=C1C(=O)c2c(Br)sc(Br)c2C1=O | > 100 |
| CCN(CC)C(=C(C(Cl)=C(Cl)Cl)[N+](=O)[O-])N(CC)CC | > 100 |
| CCOC(=O)C(C(=O)OCC)=C1NC2(c3ccccc3Nc3ccc(C)cc32)C(C#N)S1 (configuration not stated) | 43.8 |
| OC(CCN1CCCCC1)(c1ccccc1)c1ccccc1 | > 100 |
| CC(C)(C)[Si](C)(C)O[C@@H](C(=O)OC1C=CCCC1)[C@@H](NC(=O)c1ccccc1)c1ccccc1 (some centres not stated) | > 100 |
| O=C(Nc1cccc2ccccc12)Nn1cnnc1 | > 100 |
| Cc1oc2c(c1C)S(=O)(=O)C(C#N)=C(c1ccccc1)N2 | > 100 |
| Cc1ccc2c(c1)C(=O)/C(=N/Nc1ccc(Cl)cc1)CCO2 | > 100 |
| CN(C)c1ccc(/C=N\NC(=O)c2ccccc2Nc2ccccc2C(=O)N/N=C/c2ccc(N(C)C)cc2)cc1 | > 100 |
| CC(=O)O[C@@H]1CC[C@@]2(C)C(CC[C@H]3[C@@H]4CC[C@H]([C@H](C)CCc5nc6ccc(C)cc6[nH]5)[C@@]4(C)CC[C@@H]32)C1 (some centres not stated) | > 100 |
| C=C1C(=O)OC2/C=C(\CO)C3OC3C3OC3(C)CC(OC(=O)/C(=C/C)CO)C12 (configuration not stated) | > 100 |
| C/C1=C/C(C)CC(C)OC(=O)C(C)NC(=O)C(Cc2ccc(O)c(I)c2)N(C)C(=O)CNC(=O)C(C)C1 (configuration not stated) | > 100 |
| Cc1ccc(-n2cnc3c(N)nc(N)nc32)cc1 | > 100 |
| CNc1c2cccc(C)c2nc2c(C(=O)NCCN(C)C)cccc12 | 0.684 |
| CCC(Sc1cc(Cl)c(C)cc1S(=O)(=O)Nc1nc(N)nc(N(C)C)n1)C(=O)O (configuration not stated) | > 10 |
| CCOC(=O)NNC(=O)C1CSC(c2ccccc2)N1C(C)=O (configuration not stated) | > 100 |
| CC(C)(C)O/C=C1/C(=O)OC2C[C@@H](O[Si](C)(C)C(C)(C)C)CC12 (some centres not stated) | > 100 |
| COc1ccc2nc3c([N+](=O)[O-])ccc4c3c(c2c1)N=CN4CCCN(C)C | 13.9 |
| O=C1CC(=O)NC(=NN2C(=O)/C(=C/C(=O)c3ccco3)N=C2c2ccccc2)N1 | > 100 |

Test system: HL-60(TB) leukemia
Experiment: growth of human tumour cells (NCI), 48 h

| SMILES | TGI [µM] |
| --- | --- |
| COc1ccc2cc(Oc3ccc(Cl)cc3)c(=O)oc2c1 | > 100 |
| CN(C)C=C1C(=O)c2c(Br)sc(Br)c2C1=O | 53.7 |
| CCN(CC)C(=C(C(Cl)=C(Cl)Cl)[N+](=O)[O-])N(CC)CC | > 100 |
| CCOC(=O)C(C(=O)OCC)=C1NC2(c3ccccc3Nc3ccc(C)cc32)C(C#N)S1 (configuration not stated) | 61.2 |
| COC(=O)Nc1nc2ccc(S(=O)(=O)NC(CC(C)C)C(=O)OC)cc2[nH]1 (configuration not stated) | 8.04 |
| O=C(Nc1cccc2ccccc12)Nn1cnnc1 | > 100 |
| Cc1ccc2c(c1)C(=O)/C(=N/Nc1ccc(Cl)cc1)CCO2 | > 100 |
| C/C1=C/C(C)CC(C)OC(=O)C(C)NC(=O)C(Cc2ccc(O)c(I)c2)N(C)C(=O)CNC(=O)C(C)C1 (configuration not stated) | < 0.01 |
| CCC(Sc1cc(Cl)c(C)cc1S(=O)(=O)Nc1nc(N)nc(N(C)C)n1)C(=O)O (configuration not stated) | > 10 |
| CCOC(=O)NNC(=O)C1CSC(c2ccccc2)N1C(C)=O (configuration not stated) | > 100 |
